Data set [1] deals with MCF-7 (breast cancer) cells. Description: In-vitro anticancer MTT assay, MCF-7. Type of data set: cell-based, human. The note with it: 6 h exposure, then 48 h; for IC90: Homo sapiens, MCF7, 90% inhibition of cell growth vs untreated control, read-out: Inhibitory Concentration (IC90) MCF-7. As for the experimental part:
(§1) The following six human cancer cell lines were procured from the Cell Repository of the National Center for Cell Sciences (NCCS) at Pune. Their corresponding ATCC No. and the organ from which they were isolated are also mentioned in the table described below:
(§2) Cytotoxicity testing in vitro was done by the method of (Woerdenbag et al., 1993; J. Nat. Prod. 56 (6): 849-856). 2×10^3 cells/well were incubated in the 5% CO2 incubator for 24 h to enable them to adhere properly to the 96 well polystyrene microplate (Grenier, Germany). Test compounds dissolved in 100% DMSO in at least five doses were added and left for 6 h after which the compound plus media was replaced with fresh media and the cells were incubated for another 48 h in the CO2 incubator at 37° C.
(§3) Then, 10 μl MTT [3-(4,5-dimethylthiazol-2-yl)-2,5-diphenyltetrazolium bromide; Sigma M 2128] was added, and plates were incubated at 37° C. for 4 h. 100 μl dimethyl sulfoxide (DMSO, Merck, Germany) were added to all wells and mixed thoroughly to dissolve the dark blue crystals. After a few minutes at room temperature to ensure that all crystals were dissolved, the plates were read on a SpectraMax 190 Microplate Elisa reader (Molecular Devices Inc., USA), at 570 nm. Plates were normally read within 1 h of adding the DMSO. The experiment was done in triplicate and the inhibitory concentration (IC) values were calculated as follows: % inhibition=[1-OD (570 nm) of sample well/OD (570 nm) of control well]×100. IC90 is the concentration μg/ml required for 90% inhibition of cell growth as compared to that of untreated control. […] It was also found to be active against breast adenocarcinoma, liver and ovarian cancer cell lines at 20-60 μg/ml.
(§4) IC90: Concentration required to inhibit 90% of cell growth as compared to that of control.
In general terms: Formazan colour is commonly taken as a measure of viable cells.

The subject of data set [2] is breast adenocarcinoma, liver and ovarian cancer cell lines. Description: In-vitro anticancer MTT assay, summary over three cell lines. It is filed as cell-based. The note with it: Homo sapiens, range over three cell lines, read-out: active concentration (IC90) against breast adenocarcinoma, liver and ovarian cancer cell lines. The procedure:
as §1, §2
(§5) Then, 10 μl MTT [3-(4,5-dimethylthiazol-2-yl)-2,5-diphenyltetrazolium bromide; Sigma M 2128] was added, and plates were incubated at 37° C. for 4 h. […] After a few minutes at room temperature to ensure that all crystals were dissolved, the plates were read on a SpectraMax 190 Microplate Elisa reader (Molecular Devices Inc., USA), at 570 nm. Plates were normally read within 1 h of adding the DMSO. The experiment was done in triplicate and the inhibitory concentration (IC) values were calculated as follows: % inhibition=[1-OD (570 nm) of sample well/OD (570 nm) of control well]×100. […]

Data set [3] concerns PA-1 (ovary cancer) cells. Description: In-vitro anticancer MTT assay, PA-1. It is filed as cell-based, human. The note with it: 90% inhibition of cell growth vs untreated control, 6 h exposure, then 48 h. The procedure:
as §1, §2, §3, §4

In data set [4] the test system is WRL-68 (liver cancer) cells. Nature of the data set: In-vitro anticancer MTT assay, WRL-68. Type of data set: cell-based. The note with it: Homo sapiens, WRL68, 90% inhibition of cell growth vs untreated control, 6 h exposure, then 48 h, read-out: Inhibitory Concentration (IC90) WRL-68. As for the experimental part:
as §1, §2, §5

Data set [5] deals with Caco-2 (colon adenocarcinoma) cells. Description: In-vitro anticancer MTT assay, Caco-2. Type of data set: cell-based, human. The note with it: for IC90: Homo sapiens, Caco-2, read-out: Inhibitory Concentration (IC90) Caco-2; for Inhibitory Concentration (IC90) Caco-2: MTT assay, 90% inhibition of cell growth vs untreated control, 6 h exposure, then 48 h. As for the experimental part:
as §1, §2, §3, §4

Data set [6] concerns BT-20 human breast carcinoma cells. As to conditions: cited from earlier work.
Data set [7] deals with TA98 and TA100 strains of salmonella typhimurium. The note with it: cited from earlier work.
A further data set concerns Neisseria gonorrhoeae. As to conditions: cited from earlier work.

Converted amounts (≈) assume the structure as drawn.

For `CC1(C)CCC2(C(=O)O)CCC3(C)C(=CCC4C5(C)CC(O)C(O)C(C)(C)C5CCC43C)C2C1O` (racemic) [Arjunic acid, 2±,3^2,19±-tri-hydroxy-olea-12-en-28-oic acid], the IC90 in data set [1] was 50 µg/mL (≈ 102 µM); in data set [2] it was 20 to 60 µg/mL (≈ 40.9 to 123 µM); in data set [3] (Homo sapiens, read-out: Inhibitory Concentration (IC90) PA-1) it was 60 µg/mL (≈ 123 µM); in data set [4], 20 µg/mL (≈ 40.9 µM); in data set [5], 4.5 µg/mL (≈ 9.21 µM).
For `CC1(C)CCC2(C(=O)OC3OC(CO)C(O)C(O)C3O)CCC3(C)C(=CCC4C5(C)CC(O)C(O)C(C)(C)C5CCC43C)C2C1O` (stereo not drawn) [Arjunetin, arjunetin], the results for the IC90 in data set [1], in data set [4] and in data set [5] were 50 µg/mL (≈ 76.8 µM), 20 µg/mL (≈ 30.7 µM) and 10 µg/mL (≈ 15.4 µM), respectively.
With `CC1(C)CC[C@]2(C(=O)O[C@@H]3O[C@H](CO)[C@@H](O)[C@H](O)[C@H]3O)CC[C@]3(C)C(=CC[C@@H]4[C@@]5(C)C[C@@H](O)[C@H](O)[C@@](C)(CO)[C@@H]5CC[C@]43C)[C@@H]2[C@@H]1O` [Arjunglucoside-I, arjunglucoside-I], the “Inhibitory Concentration (IC90) PA-1” value in data set [3] is above 50 µg/mL. The “Inhibitory Concentration (IC90) Caco-2” value in data set [5] was above 50 µg/mL.
In general, IC50 refers to the concentration needed to halve the response being measured. Take `O=C(O[C@H]1[C@@H]2OC(=O)c3cc(O)c(O)c(O)c3-c3c(O)c(O)c4oc(=O)c5c(c(O)c(O)c6oc(=O)c3c4c65)-c3c(cc(O)c(O)c3O)C(=O)OC[C@H]2OC(O)[C@@H]1O)c1cc(O)c(O)c(O)c1` (stereo partly drawn) [Arjunin]: in data set [6], the IC50 is 6.5 mg/mL (≈ 6950 µM) and the cytotoxic activity entry is recorded as “moderate cytotoxic activity”.
Regarding `O=c1oc2c(O)c(O)cc3c(=O)oc4c(O)c(O)cc1c4c23` [Ellagic acid], in data set [7], the “antimutagenic effect against 59-dependent 2AF” value is “quit effective” and the “antimutagenic effect against NPD” value is “moderate effect”.
On to `O=c1cc(-c2ccc(O)c(O)c2)oc2cc(O)cc(O)c12` [Luteolin], for which the “activity against pathogenic bacteria” value with Neisseria gonorrhoeae is “specific activity”.
In the case of arjungenin, the “Inhibitory Concentration (IC90) MCF-7” value in data set [1] (90% inhibition of cell growth vs untreated control) was above 50 µg/mL. The “Inhibitory Concentration (IC90) PA-1” value in data set [3] amounted to 60 µg/mL. Further, in data set [5], the “Inhibitory Concentration (IC90) Caco-2” value was determined as 50 µg/mL.

These data come from patent publication US7435433B2, “Process for the isolation of oleane compounds isolated from the bark of arjun tree terminalia arjuna (Roxb.)” (Council of Scientific & Industrial Research, priority 2005, dated 2008).
